Patent publication US20240240078A1, “NUCLEIC ACID FUNCTIONALIZED METAL NANOPROBE AND PREPARATION METHOD THEREFOR” (SOUTHEAST UNIVERSITY, priority 2021, published 2024)

Columns and labels:
[1] = system: Escherichia coli; test: Fluorescence imaging of co-incubated bacteria under laser confocal fluorescence microscope; assay type: cell-based
Experimental: (§1) A preparation method for a nucleic acid functionalized metal nanoprobe includes: • (1) deoxyribonucleic acid (DNA) molecules are fully mixed with a diluted nucleic acid intercalator SYBR Green I (2.5×), and a mixture is placed at a room temperature to react in dark for 30 min. • (2) a reaction product of step (1) is fully mixed with 100 μmol/L chloroauric acid solution to obtain a mixed solution A. • (3) the mixed solution A and Escherichia coli are continuously co-incubated in a constant-temperature shaking table for 1 h-12 h to obtain a mixed solution B. A normal control group (a chloroauric acid solution having the same concentration as the experimental group is merely added) and a blank group (an Escherichia coli suspension without any treatment) are set. After incubation, a small amount of the above mixed solution are dripped into the slide glass, and mounting is performed with a cover glass. • (4) A slide glass is placed under a laser confocal fluorescence microscope to be activated. Further, the above mixture is irradiated with 808 nm laser for 5-10 min, is cultured on a solid medium, and counted.

[2] = system: Escherichia coli; test: Germicidal effect after 808 nm laser irradiation, culture on solid medium and counting; assay type: cell-based
Experimental: as §1

[Au+3].[Cl-].[Cl-].[Cl-].[Cl-].[H+] [chloroauric acid]
fluorescence / signal intensity ([1]; co-incubated with Escherichia coli 1 h-12 h, metal cation 100 μmol/L): weak fluorescence | concentration at which signal intensity reaches maximum / does not increase any more ([1]; method of Example 1, 0, 10, 50, 100, 200, 300 μmol/L tested (FIG. 2)): 100 µmol/L | signal intensity with increase of concentration ([1]; method of Example 1, 0-300 μmol/L (FIG. 2)): enhanced | germicidal (antibacterial) effect ([2]; 808 nm laser 5-10 min, cultured on solid medium and counted, metal cation 100 μmol/L): most of Escherichia coli is killed | sterilization effect with increase of concentration ([2]; method of Example 1, 0-300 μmol/L (FIG. 3)): gradually enhanced
